Measured values as given in PubChem BioAssay AID248 (DTP/NCI, 2004).
“And” between values parts separate entries of the source, which are not always exact repeats. Equal values may be shown once. Inconclusive results and toxic doses are left out. No stated cut-off is given here; in the data, active means T/C of 150% or more; inactive means T/C below 125%.

System: L1210 leukemia ip in BDF1 mice, survival T/C
Test: NCI In Vivo Anticancer Drug Screen. Data for tumor model L1210 Leukemia (intraperitoneal) in B6D2F1 (BDF1) mice
Settings: endpoint: mean survival time, higher = longer survival
Summary of the method: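 Each compound was tested against a transplantable tumor grown in mice. The endpoint was survival, with treated animals benchmarked against vehicle controls as a simple ratio.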

[1] = dose: 100.0 mg/kg/injection, schedule: Q01DX009 (ip), vehicle: acetone
[2] = dose: 100.0 mg/kg/injection, schedule: Q01DX009 (ip), vehicle: saline with Tween-80
[3] = dose: 200.0 mg/kg/injection, schedule: Q01DX009 (ip), vehicle: saline with Tween-80
[4] = dose: 100.0 mg/kg/injection, schedule: Q04DX003 (ip), vehicle: saline with Tween-80
[5] = dose: 200.0 mg/kg/injection, schedule: Q04DX003 (ip), vehicle: saline with Tween-80
[6] = dose: 100.0 mg/kg/injection, schedule: Q01DX009 (ip), vehicle: saline
[7] = dose: 200.0 mg/kg/injection, schedule: Q01DX009 (ip), vehicle: saline
[8] = dose: 400.0 mg/kg/injection, schedule: Q01DX009 (ip), vehicle: saline
[9] = dose: 100.0 mg/kg/injection, schedule: Q01DX009 (ip), vehicle: Klucel (hydroxypropylcellulose) (HPC)
[10] = dose: 200.0 mg/kg/injection, schedule: Q01DX009 (ip), vehicle: Klucel (hydroxypropylcellulose) (HPC)
[11] = dose: 400.0 mg/kg/injection, schedule: Q01DX009 (ip), vehicle: Klucel (hydroxypropylcellulose) (HPC)
[12] = dose: 100.0 mg/kg/injection, schedule: Q01DX001 (ip), vehicle: saline
[13] = dose: 200.0 mg/kg/injection, schedule: Q01DX001 (ip), vehicle: saline
[14] = dose: 100.0 mg/kg/injection, schedule: Q04DX002 (ip), vehicle: Klucel (hydroxypropylcellulose) (HPC)
[15] = dose: 200.0 mg/kg/injection, schedule: Q04DX002 (ip), vehicle: Klucel (hydroxypropylcellulose) (HPC)
[16] = dose: 400.0 mg/kg/injection, schedule: Q04DX002 (ip), vehicle: Klucel (hydroxypropylcellulose) (HPC)

Measured: T/C

COc1c(Cl)cc([N+](=O)[O-])c(OC)c1[N+](=O)[O-]
inactive: dose: 50.0 mg/kg/injection, schedule: Q01DX009 (ip), vehicle: acetone 90 % of control | dose: 50.0 mg/kg/injection, schedule: Q04DX003 (ip), vehicle: saline 98 % of control | dose: 100.0 mg/kg/injection, schedule: Q01DX001 (ip), vehicle: acetone 94 % of control | [1] 90 % of control | dose: 100.0 mg/kg/injection, schedule: Q04DX003 (ip), vehicle: saline 93 % of control | dose: 200.0 mg/kg/injection, schedule: Q01DX001 (ip), vehicle: acetone 98 % of control

CCCCNC(=O)Oc1cccc(NC(=O)OC)c1
inactive: [2] 96 % of control | [3] 92 % of control | dose: 400.0 mg/kg/injection, schedule: Q01DX009 (ip), vehicle: saline with Tween-80 105 % of control

S=c1[nH]cc2cnccn12
inactive: [2] 103 % of control | [4] 98 % of control | [3] 100 % of control | [5] 100 % of control | dose: 400.0 mg/kg/injection, schedule: Q04DX003 (ip), vehicle: saline with Tween-80 89 % of control

Cc1ccc(NCC(O)CN2CCCC2)cc1 (configuration not stated)
inactive: dose: 6.0 mg/kg/injection, schedule: Q01DX009 (ip), vehicle: Klucel (hydroxypropylcellulose) (HPC) 94 % of control | dose: 12.0 mg/kg/injection, schedule: Q01DX009 (ip), vehicle: Klucel (hydroxypropylcellulose) (HPC) 92 % of control | dose: 12.5 mg/kg/injection, schedule: Q01DX001 (ip), vehicle: Klucel (hydroxypropylcellulose) (HPC) 93 % of control | dose: 12.5 mg/kg/injection, schedule: Q04DX003 (ip), vehicle: Klucel (hydroxypropylcellulose) (HPC) 104 % of control | dose: 25.0 mg/kg/injection, schedule: Q01DX001 (ip), vehicle: Klucel (hydroxypropylcellulose) (HPC) 93 % of control | dose: 25.0 mg/kg/injection, schedule: Q01DX009 (ip), vehicle: Klucel (hydroxypropylcellulose) (HPC) 96 % of control and 100 % of control | dose: 25.0 mg/kg/injection, schedule: Q04DX003 (ip), vehicle: Klucel (hydroxypropylcellulose) (HPC) 96 % of control | dose: 50.0 mg/kg/injection, schedule: Q01DX001 (ip), vehicle: Klucel (hydroxypropylcellulose) (HPC) 93 % of control

Cc1cc(CO)c(O)c(CO)c1
inactive: dose: 100.0 mg/kg/injection, schedule: Q01DX001 (ip), vehicle: other 108 % of control | [6] 97 % of control | dose: 200.0 mg/kg/injection, schedule: Q01DX001 (ip), vehicle: other 100 % of control | [7] 103 % of control | dose: 400.0 mg/kg/injection, schedule: Q01DX001 (ip), vehicle: other 103 % of control | [8] 103 % of control

CCOC(=O)c1c(C)[nH]c2ccc(O)cc12
inactive: [9] 92 % of control | dose: 100.0 mg/kg/injection, schedule: Q04DX003 (ip), vehicle: Klucel (hydroxypropylcellulose) (HPC) 95 % of control | [10] 104 % of control | dose: 200.0 mg/kg/injection, schedule: Q04DX003 (ip), vehicle: Klucel (hydroxypropylcellulose) (HPC) 100 % of control | [11] 114 % of control | dose: 400.0 mg/kg/injection, schedule: Q04DX003 (ip), vehicle: Klucel (hydroxypropylcellulose) (HPC) 100 % of control

COc1ccc(CC(=O)c2ccccc2)cc1
inactive: dose: 100.0 mg/kg/injection, schedule: Q04DX002 (ip), vehicle: saline 92 % of control | dose: 200.0 mg/kg/injection, schedule: Q04DX002 (ip), vehicle: saline 95 % of control | dose: 400.0 mg/kg/injection, schedule: Q04DX002 (ip), vehicle: saline 104 % of control

COC(=O)c1ccc(NCC(=N)N)cc1
inactive: [12] 95 % of control | [13] 107 % of control

OC(CNc1ccnc2cc(Cl)ccc12)CNC1CCCCC1 (configuration not stated)
inactive: dose: 75.0 mg/kg/injection, schedule: Q01DX001 (ip), vehicle: other 97 % of control

CCOC(=O)c1cccc2c([N+](=O)[O-])cccc12
inactive: [12] 94 % of control | [1] 96 % of control | [13] 98 % of control | dose: 200.0 mg/kg/injection, schedule: Q01DX009 (ip), vehicle: acetone 88 % of control | dose: 400.0 mg/kg/injection, schedule: Q01DX001 (ip), vehicle: saline 98 % of control | dose: 400.0 mg/kg/injection, schedule: Q01DX009 (ip), vehicle: acetone 97 % of control

O=C(Nc1ccccc1-c1ccccc1)c1ccc(Cl)cc1Cl
inactive: [14] 104 % of control | [15] 93 % of control | [16] 101 % of control

CN(C)P(Cl)(Cc1ccccc1)(c1ccccc1)c1ccccc1
inactive: dose: 3.12 mg/kg/injection, schedule: Q01DX009 (ip), vehicle: saline 106 % of control | dose: 6.25 mg/kg/injection, schedule: Q01DX009 (ip), vehicle: saline 105 % of control | dose: 12.5 mg/kg/injection, schedule: Q04DX003 (ip), vehicle: saline 106 % of control

CCCN(CCC)C(=O)CCl
inactive: [12] 109 % of control | [13] 95 % of control

Cc1cc(N(CCCl)CCCl)ccc1C=Nc1ccc(-c2csc(-c3ccccc3)n2)c(Cl)c1
inactive: dose: 100.0 mg/kg/injection, schedule: Q01DX001 (ip), vehicle: carboxymethylcellulose (CMC) 98 % of control | dose: 200.0 mg/kg/injection, schedule: Q01DX001 (ip), vehicle: carboxymethylcellulose (CMC) 95 % of control | dose: 400.0 mg/kg/injection, schedule: Q01DX001 (ip), vehicle: carboxymethylcellulose (CMC) 107 % of control

N#CC1(NC(Cc2ccccc2)c2ccccc2)CCCC1 (configuration not stated)
inactive: [9] 114 % of control | [10] 95 % of control | [11] 92 % of control

Cc1cc(C)c(NC(=O)C2CCCCC2C(=O)O)c(C)c1 (configuration not stated)
inactive: [14] 99 % of control | [15] 92 % of control | [16] 99 % of control

CCOC(=O)C[P+](c1cccc(OC)c1)(c1cccc(OC)c1)c1cccc(OC)c1
inactive: dose: 15.0 mg/kg/injection, schedule: Q01DX001 (ip), vehicle: carboxymethylcellulose (CMC) 90 % of control | dose: 30.0 mg/kg/injection, schedule: Q01DX001 (ip), vehicle: carboxymethylcellulose (CMC) 91 % of control

CC(C)C[C@H]1C(=O)N2CCC[C@H]2[C@]2(O)O[C@](NC(=O)[C@@H]3C=C4c5cccc6[nH]c(Br)c(c56)C[C@H]4N(C)C3)(C(C)C)C(=O)N12
inactive: [2] 105 % of control | [3] 106 % of control

CC(=O)CC(C)(C)N
inactive: [4] 94 % of control | [5] 86 % of control

O=C1c2ccccc2C(=O)N1CC1CO1 (configuration not stated)
inactive: dose: 25.0 mg/kg/injection, schedule: Q04DX002 (ip), vehicle: Klucel (hydroxypropylcellulose) (HPC) 90 % of control | dose: 50.0 mg/kg/injection, schedule: Q04DX002 (ip), vehicle: Klucel (hydroxypropylcellulose) (HPC) 93 % of control | [14] 93 % of control

CCCC#CCOCC1CO1 (configuration not stated)
inactive: [6] 93 % of control | dose: 100.0 mg/kg/injection, schedule: Q04DX003 (ip), vehicle: saline sonified 98 % of control | [7] 89 % of control | dose: 200.0 mg/kg/injection, schedule: Q04DX003 (ip), vehicle: saline sonified 109 % of control | [8] 91 % of control | dose: 400.0 mg/kg/injection, schedule: Q04DX003 (ip), vehicle: saline sonified 104 % of control

O=S(O)c1ccc(Cl)cc1
inactive: [6] 101 % of control | [7] 100 % of control | [8] 98 % of control

C[N+]1(C)C2CCCC1CC(=O)C2
inactive: dose: 150.0 mg/kg/injection, schedule: Q01DX001 (ip), vehicle: saline 107 % of control
